Laboratory results reported in patent US20240109918A1, “HETEROCYCLIC COMPOUNDS AND USES THEREOF” (Kumquat Biosciences Inc., priority 2022, published 2024).
pIC50: −log10 of the molar value.

Legend:
KRASG12D = target: T1, KRASG12D (Homo sapiens, UniProt P01116, G12D); experiment: Bio-Biochem-PPI-HTRF Ras-SOS1 interaction assay (KRAS G12D); assay type: biochemical; settings: 5 nM
T1 construct: made in house; host or cells: E. coli BL21 (DE3)
In short: (§1)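 Inhibition of His-hSOS1 binding to GST-tagged wild-type or G12D K-Ras is read as HTRF ratio (665/620 nm) following incubation of about 10 minutes or longer, and IC50 values are fitted from duplicate six-point titrations.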

KRASwt = target: T2, KRASwt (Homo sapiens, UniProt P01116); experiment: Bio-Biochem-PPI-HTRF Ras-SOS1 interaction assay (KRAS wt); assay type: biochemical; settings: 5 nM
T2 construct: made in house; host or cells: E. coli BL21 (DE3)
In short: as §1

T2 sequence (P01116 1-188 isoform P01116-2): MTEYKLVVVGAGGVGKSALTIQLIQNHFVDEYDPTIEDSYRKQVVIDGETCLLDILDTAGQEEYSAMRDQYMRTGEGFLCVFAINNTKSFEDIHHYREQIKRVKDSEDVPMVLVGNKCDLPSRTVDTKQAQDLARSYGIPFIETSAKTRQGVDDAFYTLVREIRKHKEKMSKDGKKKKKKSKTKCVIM
T1 sequence (P01116 1-188 isoform P01116-2 G12D): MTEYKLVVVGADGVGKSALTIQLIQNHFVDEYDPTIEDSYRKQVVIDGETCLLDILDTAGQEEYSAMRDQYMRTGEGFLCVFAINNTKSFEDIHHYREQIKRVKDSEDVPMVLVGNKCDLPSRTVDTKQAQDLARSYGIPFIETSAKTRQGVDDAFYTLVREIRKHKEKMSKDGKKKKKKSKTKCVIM

Row | Compound | pIC50 (KRASG12D) | pIC50 (KRASwt)
1 | N#Cc1c(N)sc2c(F)ccc(-c3c(Cl)cc4c(N5CCCCC6(CN(C(=O)[C@@H]7C[C@H]7C#N)C6)C5)nc(OC[C@@]56CCCN5C[C@H](F)C6)nc4c3F)c12 [compound 263, 2-amino-4-(6-chloro-4-(2-((1R,2R)-2-cyanocyclopropane-1-carbonyl)-2,6-diazaspiro[3.6]decan-6-yl)-8-fluoro-2-(((2R,7aS)-2-fluorotetrahydro-1H-pyrrolizin-7a(5H)-yl)methoxy)quinazolin-7-yl)-7-fluorobenzo[b]thiophene-3-carbonitrile] | > 5.30 | > 5.30
2 | N#Cc1c(N)sc2c(F)ccc(-c3c(Cl)cc4c(N5CCCC6(CN(C(=O)C(F)F)C6)C5)nc(OC[C@@]56CCCN5C[C@H](F)C6)nc4c3F)c12 [compound 125, 2-amino-4-(6-chloro-4-(2-(2,2-difluoroacetyl)-2,6-diazaspiro[3.5]nonan-6-yl)-8-fluoro-2-(((2R,7aS)-2-fluorotetrahydro-1H-pyrrolizin-7a(5H)-yl)methoxy)quinazolin-7-yl)-7-fluorobenzo[b]thiophene-3-carbonitrile] | > 5.30 | > 5.30
3 | C#Cc1c(F)ccc2cc(O)cc(-c3ncc4c(N5CCCCC6(CN(C(=O)[C@H]7CC7(F)F)C6)C5)nc(OC[C@@]56CCCN5C[C@H](F)C6)nc4c3F)c12 [compound 215, ((R)-2,2-difluorocyclopropyl) (6-(7-(8-ethynyl-7-fluoro-3-hydroxynaphthalen-1-yl)-8-fluoro-2-(((2R,7aS)-2-fluorotetrahydro-1H-pyrrolizin-7a(5H)-yl)methoxy)pyrido[4,3-d]pyrimidin-4-yl)-2,6-diazaspiro[3.6]decan-2-yl)methanone] | > 5.30 | > 5.30
4 | Nc1nc2c(-c3c(Cl)cc4c(N5CCNCC56CNC6)nc(OCC56CCCN5C[C@H](F)C6)nc4c3F)ccc(F)c2s1 (stereo partly drawn) [compound 226, 4-(6-chloro-8-fluoro-2-(((2R)-2-fluorotetrahydro-1H-pyrrolizin-7a(5H)-yl)methoxy)-4-(2,5,8-triazaspiro[3.5]nonan-5-yl)quinazolin-7-yl)-7-fluorobenzo[d]thiazol-2-amine] | ≤ 5.30 | ≤ 5.30
5 | N#Cc1c(N)sc2c(F)ccc(-c3c(Cl)cc4c(N5CCC(O)CC6(CN(C(=O)C(F)F)C6)C5)nc(OC[C@@]56CCCN5C[C@H](F)C6)nc4c3F)c12 (stereo partly drawn) [compound 241, 2-amino-4-(6-chloro-4-(2-(2,2-difluoroacetyl)-9-hydroxy-2,6-diazaspiro [3.6]decan-6-yl)-8-fluoro-2-(((2R,7aS)-2-fluorotetrahydro-1H-pyrrolizin-7a(5H)-yl)methoxy)quinazolin-7-yl)-7-fluorobenzo[b]thiophene-3-carbonitrile] | > 5.30 | > 5.30
6 | C[C@H](Oc1nc(N2CCOC3(CNC3)C2)c2cc(Cl)c(-c3ccc(F)c4sc(N)c(C#N)c34)c(F)c2n1)[C@@H]1CCCN1C [compound 110, 2-amino-4-(6-chloro-8-fluoro-2-((S)-1-((S)-1-methylpyrrolidin-2-yl)ethoxy)-4-(5-oxa-2,8-diazaspiro[3.5]nonan-8-yl)quinazolin-7-yl)-7-fluorobenzo[b]thiophene-3-carbonitrile] | > 5.30 | > 5.30
7 | N#Cc1c(N)sc2c(F)ccc(-c3c(Cl)cc4c(N5CCCC6(CNC6)C5)nc(OC[C@@]56CCCN5C[C@H](F)C6)nc4c3F)c12 [compound 147, 2-amino-4-(6-chloro-8-fluoro-2-(((2R,7aS)-2-fluorotetrahydro-1H-pyrrolizin-7a(5H)-yl)methoxy)-4-(2,6-diazaspiro[3.5]nonan-6-yl)quinazolin-7-yl)-7-fluorobenzo[b]thiophene-3-carbonitrile] | > 5.30 | > 5.30
8 | CC(F)(F)C(=O)N1CC2(CCCCN(c3nc(OC[C@@]45CCCN4C[C@H](F)C5)nc4c(F)c(-c5ccc(F)c6sc(N)c(C#N)c56)c(Cl)cc34)C2)C1 [compound 213, 2-amino-4-(6-chloro-4-(2-(2,2-difluoropropanoyl)-2,6-diazaspiro[3.6]decan-6-yl)-8-fluoro-2-(((2R,7aS)-2-fluorotetrahydro-1H-pyrrolizin-7a(5H)-yl)methoxy)quinazolin-7-yl)-7-fluorobenzo[b]thiophene-3-carbonitrile] | > 5.30 | > 5.30
9 | N#Cc1c(N)sc2c(F)ccc(-c3c(Cl)cc4c(N5CCCCC6(CN(C(=O)C[C@H]7CCOC7)C6)C5)nc(OC[C@@]56CCCN5C[C@H](F)C6)nc4c3F)c12 [compound 304, 2-amino-4-(6-chloro-8-fluoro-2-(((2R,7aS)-2-fluorotetrahydro-1H-pyrrolizin-7a(5H)-yl)methoxy)-4-(2-(2-((R)-tetrahydrofuran-3-yl)acetyl)-2,6-diazaspiro[3.6]decan-6-yl)quinazolin-7-yl)-7-fluorobenzo[b]thiophene-3-carbonitrile] | > 5.30 | > 5.30
10 | N#Cc1c(N)sc2c(F)ccc(-c3c(Cl)cc4c(N5CCCCC6(CN(C(=O)CC7CC(F)(F)C7)C6)C5)nc(OC[C@@]56CCCN5C[C@H](F)C6)nc4c3F)c12 [compound 347, 2-amino-4-(6-chloro-4-(2-(2-(3,3-difluorocyclobutyl)acetyl)-2,6-diazaspiro[3.6]decan-6-yl)-8-fluoro-2-(((2R,7aS)-2-fluorotetrahydro-1H-pyrrolizin-7a(5H)-yl)methoxy)quinazolin-7-yl)-7-fluorobenzo[b]thiophene-3-carbonitrile] | > 5.30 | > 5.30
11 | C[C@H]1CN(C(=O)N2CC3(CCCCN(c4nc(OC[C@@]56CCCN5C[C@H](F)C6)nc5c(F)c(-c6ccc(F)c7sc(N)c(C#N)c67)c(Cl)cc45)C3)C2)CCO1 [compound 285, 2-amino-4-(6-chloro-8-fluoro-2-(((2R,7aS)-2-fluorotetrahydro-1H-pyrrolizin-7a(5H)-yl)methoxy)-4-(2-((S)-2-methylmorpholine-4-carbonyl)-2,6-diazaspiro[3.6]decan-6-yl)quinazolin-7-yl)-7-fluorobenzo[b]thiophene-3-carbonitrile] | > 5.30 | > 5.30
12 | C[C@H](Oc1nc(N2CCCC3(CN(C(=O)[C@@H]4C[C@H]4F)C3)C2)c2cc(Cl)c(-c3ccc(F)c4sc(N)c(C#N)c34)c(F)c2n1)[C@@H]1CCCN1C [compound 126, 2-amino-4-(6-chloro-8-fluoro-4-(2-((1S,2R)-2-fluorocyclopropane-1-carbonyl)-2,6-diazaspiro[3.5]nonan-6-yl)-2-((S)-1-((S)-1-methylpyrrolidin-2-yl)ethoxy)quinazolin-7-yl)-7-fluorobenzo[b] thiophene-3-carbonitrile] | > 5.30 | > 5.30
13 | N#Cc1c(N)sc2c(F)ccc(-c3c(Cl)cc4c(N5CCCCC6(CN(C(=O)N7CC(F)C7)C6)C5)nc(OC[C@@]56CCCN5C[C@H](F)C6)nc4c3F)c12 [compound 250, 2-amino-4-(6-chloro-8-fluoro-4-(2-(3-fluoroazetidine-1-carbonyl)-2,6-diazaspiro[3.6]decan-6-yl)-2-(((2R,7aS)-2-fluorotetrahydro-1H-pyrrolizin-7a(5H)-yl)methoxy)quinazolin-7-yl)-7-fluorobenzo[b]thiophene-3-carbonitrile] | > 5.30 | > 5.30
14 | N#Cc1c(N)sc2c(F)ccc(-c3c(Cl)cc4c(N5CCOC6(CN(C(=O)[C@H]7CC7(F)F)C6)C5)nc(OC[C@@]56CCCN5C[C@H](F)C6)nc4c3F)c12 (single isomer, unassigned) [compound 176] | > 5.30 | > 5.30
15 | Cc1cc(C(=O)N2CC3(CCCCN(c4nc(OC[C@@]56CCCN5C[C@H](F)C6)nc5c(F)c(-c6ccc(F)c7sc(N)c(C#N)c67)c(Cl)cc45)C3)C2)nn1C(F)F [compound 209, 2-amino-4-(6-chloro-4-(2-(1-(difluoromethyl)-5-methyl-1H-pyrazole-3-carbonyl)-2,6-diazaspiro[3.6]decan-6-yl)-8-fluoro-2-(((2R,7aS)-2-fluorotetrahydro-1H-pyrrolizin-7a(5H)-yl)methoxy)quinazolin-7-yl)-7-fluorobenzo[b]thiophene-3-carbonitrile] | > 5.30 | > 5.30
16 | N#Cc1c(N)sc2c(F)ccc(-c3c(Cl)cc4c(N5CCOC6(CN(C(=O)C7(C(F)F)COC7)C6)C5)nc(OC[C@@]56CCCN5C[C@H](F)C6)nc4c3F)c12 [compound 252, 2-amino-4-(6-chloro-4-(2-(3-(difluoromethyl)oxetane-3-carbonyl)-5-oxa-2,8-diazaspiro[3.5]nonan-8-yl)-8-fluoro-2-(((2R,7aS)-2-fluorotetrahydro-1H-pyrrolizin-7a(5H)-yl)methoxy)quinazolin-7-yl)-7-fluorobenzo[b]thiophene-3-carbonitrile] | > 5.30 | > 5.30
17 | Nc1nc2c(-c3c(Cl)cc4c(N5CCCC6(CCNC6)C5)nc(OC[C@@]56CCCN5C[C@H](F)C6)nc4c3F)ccc(F)c2s1 (stereo partly drawn) [compound 130, 4-(6-chloro-8-fluoro-2-(((2R,7aS)-2-fluorotetrahydro-1H-pyrrolizin-7a(5H)-yl)methoxy)-4-(2,7-diazaspiro[4.5]decan-7-yl)quinazolin-7-yl)-7-fluorobenzo[d]thiazol-2-amine] | > 5.30 | > 5.30
18 | Cc1ccnc(C(C)C)c1-n1c(=O)nc(N2CCOC3(CNC3)C2)c2cc(F)c(-c3c(O)cccc3F)nc21 [compound 112, 6-fluoro-7-(2-fluoro-6-hydroxyphenyl)-1-(2-isopropyl-4-methylpyridin-3-yl)-4-(5-oxa-2,8-diazaspiro[3.5]nonan-8-yl)pyrido[2,3-d]pyrimidin-2(1H)-one] | ≤ 5.30 | ≤ 5.30
